According to patent publication US20220128542A1, “TREATMENT EFFICIENCY EVALUATION” (TX MEDIC AB, priority 2019, published 2022):

System: brain of rats subjected to closed-head diffuse severe TBI (sTBI)
Experiment: HPLC of free amino acids and amino group containing compounds in brain, dose study after sTBI (Example 3)
Type: in vivo, rat
Excerpt: Male Wistar rats (n=160) of 300-350 g body weight were used in this study.
1994, 80: 291-300. This model causes diffuse axonal injury and it is able to reproduce the physical and mechanical characteristics of the diffuse TBI in humans.
Rats were placed prone on a bed of specific polyurethane foam inserted in a special container. This foam dissipates the major part of the potential energy (deriving from the mechanical forces) and prevents any rebound of the animal after the impact that could produce spinal damages.
These time points are coincident with the worst biochemical derangement (2 days) or, in the case of a mildly injured brain, with a full metabolic recovery (7 days).
The drug treatment consisted in a subcutaneous injection of 0.5 ml of LMW-DS (Tikomed) and administered at 3 different concentrations (1, 5 and 15 mg/kg body weight), according to the schematic protocol described below.
Sham-operated animals underwent the same procedure of anesthesia but TBI and were used as the control group.
Rats used in this study were divided into 4 groups in order to carry out a study on the efficacy of three different concentrations of LMW-DS at two different times post TBI. As subsequently specified, in each group there were animals subjected to a specific treatment for metabolic analyses and other animals intended to histo-morphological studies, according to the procedures described below.
Rats subjected to sTBI and receiving a single administration of LMW-DS after 30 minutes post-TBI, with sacrifice at 2 days post-TBI. Animals were divided in the following subgroups:
Rats subjected to sTBI and receiving a single administration of LMW-DS after 30 minutes post-TBI, with sacrifice at 7 days post-TBI. Animals were divided in the following subgroups:
Rats (n=12) subjected to sTBI and receiving repeated administrations of the maximal dose of LMW-DS (15 mg/kg b.w.) after 30 minutes, 3 days and 5 days post-TBI, with sacrifice at 7 days post-TBI. Four additional rats were used for the histo-morphological studies. Total rats in this group: n=16
To minimize metabolite loss, an in vivo craniectomy was performed in all animals during anesthesia. The rat skull was carefully removed, the brain was exposed, sharply cut along the sagittal fissure and the two hemispheres were separated. The hemispheres dedicated to biochemical analyses were freeze-clamped by aluminum tongues pre-cooled in liquid nitrogen and then immersed in liquid nitrogen. The freeze-clamping procedure was introduced to accelerate freezing of the tissue, thus minimizing potential metabolite loss.
Tissue homogenization for metabolite analyses was effected as described below. After the wet weight (w.w.) determination, the frozen hemispheres were placed into 7 ml of ice-cold, nitrogen-saturated, precipitating solution (1:10 w/v) composed by CH3CN+10 mM KH2PO4, pH 7.40, (3:1; v:v), and the homogenization was performed using an Ultra-Turrax homogenizer set at 24,000 rpm/min (Janke & Kunkel, Staufen, Germany). After centrifugation at 20,690×g, for 10 min at 4° C., the clear supernatants were saved, pellets were supplemented with an aliquot of 10 mM KH2PO4 and homogenized again as described above and saved overnight at −20° C. in order to obtain a complete recovery of aqueous phase from tissue. A second centrifugation was performed (20,690×g, for 10 min at 4° C.) and supernatants combined with those previously obtained were extracted by vigorous agitation with a double volume of HPLC-grade CHCl3 and centrifuged as above.

[1] = rats 2 days post-TBI, single 1 mg/kg b.w. 30 min after trauma
[2] = rats 2 days post-TBI, single 5 mg/kg b.w. 30 min after trauma
[3] = rats 2 days post-TBI, single 15 mg/kg b.w. 30 min after trauma
[4] = rats 7 days post-sTBI, repeated 15 mg/kg b.w.
[5] = rats 7 days post-sTBI, single 1 mg/kg b.w.
[6] = rats 7 days post-sTBI, single 5 mg/kg b.w.
[7] = rats 7 days post-sTBI, single 15 mg/kg b.w.

sodium salt of dextran sulfate [LMW-DS]
isoleucine (ILE) (2 days post-TBI): restored | osmolyte and aromatic free amino acids (2 days post-TBI): No remarkable effects | methionine (2 days post-TBI, any dose tested): Restoration | TAU concentrations (7 days after injury): normalized | L-Cystathionine (L-Cystat) (7 days post impact, highest dose, single or repeat): significant increase | GLU (7 days post injury, 15 mg/kg b.w. single or repeat): normalization | ARG concentration in brain homogenate [1]: 0.13 ± 0.03 nmol/g w.w. | ASN concentration in brain homogenate [1]: 0.13 ± 0.02 µmol/g w.w. | ASP concentration in brain homogenate [1]: 4.17 ± 0.99 nmol/g w.w. | GABA concentration in brain homogenate [1]: 1.87 ± 0.17 µmol/g w.w. | GLN concentration in brain homogenate [1]: 4.37 ± 0.59 µmol/g w.w. | GLU concentration in brain homogenate [1]: 12.5 ± 0.91 µmol/g w.w. | GLY concentration in brain homogenate [1]: 1.35 ± 0.26 nmol/g w.w. | LYS concentration in brain homogenate [1]: 0.29 ± 0.11 µmol/g w.w. | MET concentration in brain homogenate [1]: 0.04 ± 0.01 µmol/g w.w. | ORN concentration in brain homogenate [1]: 0.02 ± 0.01 µmol/g w.w. | SAH concentration in brain homogenate [1]: 0.07 ± 0.02 nmol/g w.w. | TAU concentration in brain homogenate [1]: 4.98 ± 0.47 nmol/g w.w. | THR concentration in brain homogenate [1]: 0.70 ± 0.15 nmol/g w.w. | TRP concentration in brain homogenate [1]: 0.02 ± 0.01 µmol/g w.w. | TYR concentration in brain homogenate [1]: 0.18 ± 0.03 nmol/g w.w. | VAL concentration in brain homogenate [1]: 0.07 ± 0.03 µmol/g w.w. | ARG concentration in brain homogenate [2]: 0.13 ± 0.03 nmol/g w.w. | ASP concentration in brain homogenate [2]: 4.15 ± 0.95 nmol/g w.w. | GABA concentration in brain homogenate [2]: 1.99 ± 0.18 µmol/g w.w. | GLN concentration in brain homogenate [2]: 4.55 ± 0.44 µmol/g w.w. | GLY concentration in brain homogenate [2]: 1.43 ± 0.28 nmol/g w.w. | L-Cystat concentration in brain homogenate [2]: 0.31 ± 0.06 µmol/g w.w. | LYS concentration in brain homogenate [2]: 0.37 ± 0.14 µmol/g w.w. | ORN concentration in brain homogenate [2]: 0.01 ± 0.01 µmol/g w.w. | SAH concentration in brain homogenate [2]: 0.07 ± 0.02 nmol/g w.w. | TAU concentration in brain homogenate [2]: 5.15 ± 0.49 nmol/g w.w. | THR concentration in brain homogenate [2]: 0.77 ± 0.17 nmol/g w.w. | TRP concentration in brain homogenate [2]: 0.03 ± 0.01 µmol/g w.w. | TYR concentration in brain homogenate [2]: 0.20 ± 0.03 nmol/g w.w. | VAL concentration in brain homogenate [2]: 0.08 ± 0.03 µmol/g w.w. | ARG concentration in brain homogenate [3]: 0.16 ± 0.04 nmol/g w.w. | ASP concentration in brain homogenate [3]: 3.05 ± 0.42 nmol/g w.w. | GLN concentration in brain homogenate [3]: 4.21 ± 0.51 µmol/g w.w. | GLY concentration in brain homogenate [3]: 1.18 ± 0.23 nmol/g w.w. | LEU concentration in brain homogenate [3]: 0.04 ± 0.01 µmol/g w.w. | LYS concentration in brain homogenate [3]: 0.32 ± 0.12 µmol/g w.w. | MET concentration in brain homogenate [3]: 0.03 ± 0.01 µmol/g w.w. | ORN concentration in brain homogenate [3]: 0.02 ± 0.01 µmol/g w.w. | SAH concentration in brain homogenate [3]: 0.06 ± 0.02 nmol/g w.w. | TAU concentration in brain homogenate [3]: 4.59 ± 0.43 nmol/g w.w. | THR concentration in brain homogenate [3]: 0.61 ± 0.13 nmol/g w.w. | TYR concentration in brain homogenate [3]: 0.17 ± 0.03 nmol/g w.w. | VAL concentration in brain homogenate [3]: 0.06 ± 0.03 µmol/g w.w. | ALA concentration in brain homogenate [4]: 0.47 ± 0.05 µmol/g w.w. | ASN concentration in brain homogenate [4]: 0.1 ± 0.02 µmol/g w.w. | ASP concentration in brain homogenate [4]: 2.42 ± 0.39 nmol/g w.w. | CITR concentration in brain homogenate [4]: 0.03 ± 0.01 µmol/g w.w. | GABA concentration in brain homogenate [4]: 1.38 ± 0.14 µmol/g w.w. | GLN concentration in brain homogenate [4]: 3.88 ± 0.4 µmol/g w.w. | GLY concentration in brain homogenate [4]: 0.78 ± 0.10 nmol/g w.w. | HYS concentration in brain homogenate [4]: 0.06 ± 0.01 µmol/g w.w. | ILE concentration in brain homogenate [4]: 0.03 ± 0.01 µmol/g w.w. | LEU concentration in brain homogenate [4]: 0.04 ± 0.01 µmol/g w.w. | LYS concentration in brain homogenate [4]: 0.23 ± 0.07 µmol/g w.w. | ORN concentration in brain homogenate [4]: 0.02 ± 0.01 µmol/g w.w. | SAH concentration in brain homogenate [4]: 0.04 ± 0.04 nmol/g w.w. | TAU concentration in brain homogenate [4]: 3.47 ± 0.44 nmol/g w.w. | THR concentration in brain homogenate [4]: 0.77 ± 0.14 nmol/g w.w. | TYR concentration in brain homogenate [4]: 0.14 ± 0.02 nmol/g w.w. | VAL concentration in brain homogenate [4]: 0.07 ± 0.01 µmol/g w.w. | ALA concentration in brain homogenate [5]: 0.57 ± 0.06 µmol/g w.w. | ARG concentration in brain homogenate [5]: 0.13 ± 0.02 nmol/g w.w. | ASN concentration in brain homogenate [5]: 0.1 ± 0.02 µmol/g w.w. | ASP concentration in brain homogenate [5]: 4.17 ± 0.67 nmol/g w.w. | CITR concentration in brain homogenate [5]: 0.03 ± 0.01 µmol/g w.w. | GABA concentration in brain homogenate [5]: 1.73 ± 0.18 µmol/g w.w. | GLN concentration in brain homogenate [5]: 4.1 ± 0.42 µmol/g w.w. | GLU concentration in brain homogenate [5]: 12.1 ± 1.02 µmol/g w.w. | GLY concentration in brain homogenate [5]: 0.98 ± 0.20 nmol/g w.w. | HYS concentration in brain homogenate [5]: 0.06 ± 0.01 µmol/g w.w. | L-Cystat concentration in brain homogenate [5]: 0.24 ± 0.04 µmol/g w.w. | LYS concentration in brain homogenate [5]: 0.19 ± 0.06 µmol/g w.w. | MET concentration in brain homogenate [5]: 0.03 ± 0.01 µmol/g w.w. | ORN concentration in brain homogenate [5]: 0.01 ± 0.01 µmol/g w.w. | SAH concentration in brain homogenate [5]: 0.04 ± 0.01 nmol/g w.w. | SER concentration in brain homogenate [5]: 0.92 ± 0.16 µmol/g w.w. | TAU concentration in brain homogenate [5]: 4.02 ± 0.51 nmol/g w.w. | THR concentration in brain homogenate [5]: 0.71 ± 0.12 nmol/g w.w. | TYR concentration in brain homogenate [5]: 0.13 ± 0.02 nmol/g w.w. | VAL concentration in brain homogenate [5]: 0.08 ± 0.01 µmol/g w.w. | ALA concentration in brain homogenate [6]: 0.44 ± 0.05 µmol/g w.w. | ARG concentration in brain homogenate [6]: 0.15 ± 0.02 nmol/g w.w. | ASN concentration in brain homogenate [6]: 0.1 ± 0.02 µmol/g w.w. | ASP concentration in brain homogenate [6]: 3.63 ± 0.59 nmol/g w.w. | CITR concentration in brain homogenate [6]: 0.03 ± 0.01 µmol/g w.w. | GLN concentration in brain homogenate [6]: 3.86 ± 0.4 µmol/g w.w. | GLU concentration in brain homogenate [6]: 11.8 ± 0.99 µmol/g w.w. | GLY concentration in brain homogenate [6]: 0.88 ± 0.15 nmol/g w.w. | HYS concentration in brain homogenate [6]: 0.06 ± 0.01 µmol/g w.w. | L-Cystat concentration in brain homogenate [6]: 0.26 ± 0.04 µmol/g w.w. | LYS concentration in brain homogenate [6]: 0.21 ± 0.04 µmol/g w.w. | MET concentration in brain homogenate [6]: 0.04 ± 0.01 µmol/g w.w. | TAU concentration in brain homogenate [6]: 3.51 ± 0.44 nmol/g w.w. | THR concentration in brain homogenate [6]: 0.71 ± 0.15 nmol/g w.w. | TRP concentration in brain homogenate [6]: 0.02 ± 0.01 µmol/g w.w. | TYR concentration in brain homogenate [6]: 0.13 ± 0.02 nmol/g w.w. | VAL concentration in brain homogenate [6]: 0.08 ± 0.01 µmol/g w.w. | ALA concentration in brain homogenate [7]: 0.38 ± 0.04 µmol/g w.w. | ARG concentration in brain homogenate [7]: 0.14 ± 0.02 nmol/g w.w. | ASN concentration in brain homogenate [7]: 0.1 ± 0.02 µmol/g w.w. | CITR concentration in brain homogenate [7]: 0.03 ± 0.01 µmol/g w.w. | GABA concentration in brain homogenate [7]: 1.43 ± 0.15 µmol/g w.w. | GLN concentration in brain homogenate [7]: 3.73 ± 0.38 µmol/g w.w. | GLU concentration in brain homogenate [7]: 10.2 ± 0.86 µmol/g w.w. | GLY concentration in brain homogenate [7]: 0.78 ± 0.12 nmol/g w.w. | HYS concentration in brain homogenate [7]: 0.06 ± 0.01 µmol/g w.w. | L-Cystat concentration in brain homogenate [7]: 0.25 ± 0.04 µmol/g w.w. | LYS concentration in brain homogenate [7]: 0.21 µmol/g w.w. | MET concentration in brain homogenate [7]: 0.04 ± 0.01 µmol/g w.w. | SAH concentration in brain homogenate [7]: 0.04 ± 0.01 nmol/g w.w. | SER concentration in brain homogenate [7]: 0.76 ± 0.12 µmol/g w.w. | TAU concentration in brain homogenate [7]: 3.38 ± 0.44 nmol/g w.w. | THR concentration in brain homogenate [7]: 0.72 ± 0.14 nmol/g w.w. | TYR concentration in brain homogenate [7]: 0.14 ± 0.02 nmol/g w.w.
